# Source: ChEMBL document CHEMBL5241093, “Recent advances in the design and discovery of synthetic tyrosinase inhibitors” (Eur J Med Chem, 2021)
# What was measured:
# Tyrosinase [1] = target: T1, Tyrosinase (Agaricus bisporus, UniProt O42713); experiment: Inhibition of mushroom tyrosinase incubated for 20 mins by spectrophotometric assay
# T1 sequence (O42713 whole entry): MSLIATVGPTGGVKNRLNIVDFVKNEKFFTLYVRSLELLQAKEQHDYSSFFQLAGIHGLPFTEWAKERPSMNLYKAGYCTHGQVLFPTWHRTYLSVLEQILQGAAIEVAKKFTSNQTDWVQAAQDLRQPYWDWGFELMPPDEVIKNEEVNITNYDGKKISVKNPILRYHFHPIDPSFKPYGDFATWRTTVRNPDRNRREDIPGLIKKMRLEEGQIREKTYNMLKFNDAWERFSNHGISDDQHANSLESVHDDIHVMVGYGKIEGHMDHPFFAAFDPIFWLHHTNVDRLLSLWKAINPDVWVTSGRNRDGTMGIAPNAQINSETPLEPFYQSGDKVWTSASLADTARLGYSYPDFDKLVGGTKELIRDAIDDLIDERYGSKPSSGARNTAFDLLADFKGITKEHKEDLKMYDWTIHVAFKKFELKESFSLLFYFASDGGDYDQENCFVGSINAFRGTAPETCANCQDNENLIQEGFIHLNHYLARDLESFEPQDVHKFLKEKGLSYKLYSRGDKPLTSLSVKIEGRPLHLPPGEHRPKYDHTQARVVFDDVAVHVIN
# B16-F10 = experiment: Inhibition of melanin production in mouse B16-F10 cells assessed reduction in melanin level measured after 72 hrs by ELISA assay relative to control; type: functional
# Tyrosinase [2] = target: T1, Tyrosinase; experiment: Inhibition of mushroom tyrosinase using L-dopa as substrate assessed as diphenolase activity preincubated for 20 mins followed by substrate addition measured after 10 mins by plate reader analysis
# Tyrosinase [3] = target: T1, Tyrosinase; experiment: Inhibition of mushroom tyrosinase using L-tyrosine as substrate assessed as monophenolase activity preincubated for 20 mins followed by substrate addition measured after 10 mins by plate reader analysis
# Tyrosinase [4] = target: T1, Tyrosinase; experiment: Inhibition of mushroom tyrosinase using L-tyrosine as substrate preincubated for 15 mins followed by substrate addition measured after 30 mins by plate reader analysis
# Tyrosinase [5] = target: T1, Tyrosinase; experiment: Inhibition of mushroom tyrosinase using L-DOPA as substrate incubated for 10 mins by spectrophotometric assay
# Tyrosinase [6] = target: T1, Tyrosinase; experiment: Inhibition of mushroom tyrosinase using L-tyrosine as a substrate incubated for 10 mins
# Tyrosinase [7] = target: T1, Tyrosinase; experiment: Inhibition of mushroom tyrosinase using L-dopa as substrate by spectrophotometric analysis
# Tyrosinase [8] = target: T1, Tyrosinase; experiment: Inhibition of mushroom tyrosinase using L-DOPA as substrate preincubated for 10 mins followed by substrate addition measured after 20 mins by microtitre plate reader analysis
# Tyrosinase [9] = target: T1, Tyrosinase
# Description: Inhibition of mushroom tyrosinase using L-DOPA as substrate assessed as inhibition constant preincubated for 15 mins followed by substrate addition measured after 2 mins by microtitre plate reader analysis
# Tyrosinase [10] = target: T1, Tyrosinase; experiment: Inhibition of mushroom tyrosinase using L-DOPA as substrate by HTS analysis
# Tyrosinase [11] = target: T1, Tyrosinase; experiment: Inhibition of mushroom tyrosinase using L-DOPA as substrate preincubated for 10 mins followed by substrate addition measured after 5 mins
# Tyrosinase [12] = target: T1, Tyrosinase; experiment: Inhibition of mushroom tyrosinase using L-DOPA as substrate preincubated for 10 mins followed by substrate addition measured after 20 mins
# Tyrosinase [13] = target: T1, Tyrosinase; experiment: Inhibition of mushroom tyrosinase using L-dopa as substrate incubated for 30 mins by spectrophotometric analysis
# Tyrosinase [14] = target: T1, Tyrosinase; experiment: Inhibition of mushroom tyrosinase using L-DOPA as substrate incubated for 30 mins
# B16 = experiment: Anti-melanoma activity against mouse B16 cells assessed as inhibition of tyrosinase activity incubated for 48 hrs by spectrophotometer analysis relative to control; type: functional
# [15] = Antioxidant activity assessed as DPPH radical scavenging activity incubated for 30 mins under dark condition by microplate reader analysis; type: functional
# Tyrosinase [16] = target: T1, Tyrosinase; experiment: Inhibition of mushroom tyrosinase using L-DOPA as substrate incubated for 20 mins by microplate reader analysis
# Tyrosinase [17] = target: T1, Tyrosinase; experiment: Inhibition of mushroom tyrosinase using L-DOPA as substrate assessed as diphenolase activity
# Tyrosinase [18] = target: T1, Tyrosinase; experiment: Inhibition of mushroom tyrosinase using L-tyrosine as substrate assessed as monophenolase activity
# Tyrosinase [19] = target: T1, Tyrosinase; experiment: Inhibition of mushroom tyrosinase using L-dopa as substrate incubated for 30 mins by microplate reader analysis
# Tyrosinase [20] = target: T1, Tyrosinase; experiment: Inhibition of mushroom tyrosinase using L-DOPA as substrate incubated for 20 mins
# Tyrosinase [21] = target: T1, Tyrosinase; experiment: Inhibition of mushroom tyrosinase using L-dopa as substrate assessed as monophenolase activity by microplate reader analysis
# Tyrosinase [22] = target: T1, Tyrosinase; experiment: Inhibition of mushroom tyrosinase using L-tyrosine as substrate assessed as […] activity by microplate reader analysis
# Tyrosinase [23] = target: T1, Tyrosinase; experiment: Inhibition of mushroom tyrosinase using L-DOPA as substrate incubated for 5 mins
# Tyrosinase [24] = target: T1, Tyrosinase; experiment: Inhibition of mushroom tyrosinase using L-dopa as substrate assessed as inhibition constant incubated for 30 mins by spectrophotometric analysis
# Mushroom tyrosinase [25] = target: T2, Mushroom tyrosinase (Agaricus bisporus, UniProt O42713+Q00024+C7FF04+C7FF05); experiment: Inhibition of mushroom diphenolase
# Mushroom tyrosinase [26] = target: T2, Mushroom tyrosinase; experiment: Inhibition of mushroom monophenolase
# Tyrosinase [27] = target: T1, Tyrosinase; experiment: Inhibition of mushroom tyrosinase using L-DOPA as a substrate assessed as inhibition constant incubated for 5 mins by microplate reader analysis
# Tyrosinase [28] = target: T1, Tyrosinase; experiment: Inhibition of mushroom tyrosinase using L-DOPA as substrate preincubated for 10 mins followed by substrate addition measured after 20 mins by microtitre plate analysis
# Tyrosinase [29] = target: T1, Tyrosinase; experiment: Inhibition of mushroom tyrosinase using L-DOPA as substrate incubated for 10 mins
# Tyrosinase [30] = target: T1, Tyrosinase; experiment: Inhibition of mushroom tyrosinase using L-DOPA as substrate assessed as monophenolase activity incubated for 20 mins by microplate reader analysis
# Tyrosinase [31] = target: T1, Tyrosinase; experiment: Inhibition of mushroom tyrosinase using L-tyrosine as substrate assessed as […] activity incubated for 20 mins by microplate reader analysis
# [32] = Antioxidant activity assessed as DPPH radical scavenging activity incubated for 30 mins under dark condition; type: functional
# Tyrosinase [33] = target: T1, Tyrosinase; experiment: Inhibition of mushroom tyrosinase using L-dopa as substrate assessed as diphenolase activity incubated for 30 mins by spectrophotometric method
# Tyrosinase [34] = target: T1, Tyrosinase; experiment: Inhibition of mushroom tyrosinase using L-dopa as substrate assessed as monophenolase activity incubated for 30 mins by spectrophotometric method
# Tyrosinase [35] = target: T1, Tyrosinase; experiment: Inhibition of mushroom tyrosinase using L-DOPA as substrate assessed as inhibition constant preincubated with compound for 15 mins by microplate reader analysis
# Tyrosinase [36] = target: T1, Tyrosinase; experiment: Inhibition of mushroom tyrosinase using L-DOPA as substrate preincubated with compound for 15 mins by microplate reader analysis
# Tyrosinase [37] = target: T3, Tyrosinase (Homo sapiens, UniProt P14679); experiment: Inhibition of human his tagged tyrosinase expressed in HEK293 cells using L-DOPA as substrate incubated for 10 mins by microtitre plate reader analysis; type: cell-based
# T3 sequence (P14679 whole entry): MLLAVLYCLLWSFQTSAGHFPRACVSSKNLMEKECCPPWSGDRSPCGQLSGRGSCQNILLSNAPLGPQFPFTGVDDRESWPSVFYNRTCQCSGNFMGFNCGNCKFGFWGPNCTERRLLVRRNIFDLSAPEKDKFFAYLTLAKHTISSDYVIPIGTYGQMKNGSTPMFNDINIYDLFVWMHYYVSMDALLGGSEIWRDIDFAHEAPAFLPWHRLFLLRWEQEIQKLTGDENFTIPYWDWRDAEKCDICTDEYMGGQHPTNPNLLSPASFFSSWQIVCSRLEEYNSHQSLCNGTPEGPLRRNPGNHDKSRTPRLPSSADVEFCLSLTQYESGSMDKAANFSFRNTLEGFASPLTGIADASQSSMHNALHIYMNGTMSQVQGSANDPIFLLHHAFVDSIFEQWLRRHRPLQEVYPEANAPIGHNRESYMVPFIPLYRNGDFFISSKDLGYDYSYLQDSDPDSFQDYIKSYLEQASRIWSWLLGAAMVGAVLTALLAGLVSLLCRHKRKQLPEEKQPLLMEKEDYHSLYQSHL
smiles,measurement,setting,value
O=C(/C=C/c1cccc(Cl)c1)NCCN1CCOCC1,IC50,Tyrosinase [1],15.2 µM
COc1ccc(-c2n[nH]c(S)n2)cc1,inhibition (INH),B16-F10,55%
N/C(S)=N/N=C/c1ccc([N+](=O)[O-])cc1,IC50,Tyrosinase [2],1.74 µM
same,IC50,Tyrosinase [3],0.05 µM
CCCCOC(=O)/C=C/c1ccc(O)cc1,IC50,Tyrosinase [4],69 µM
CCOC(OCC)c1ccc(/C=C2\CCC/C(=C\c3ccc(C(OCC)OCC)cc3)C2=O)cc1,IC50,Tyrosinase [5],10.1 µM
CCOC(OCC)c1ccc(/C=C2\Cc3ccccc3C2=O)cc1,IC50,Tyrosinase [5],6.83 µM
CCOC(OCC)c1ccc(/C=C/C(=O)C2CCc3ccccc3C2=O)cc1 (stereo not drawn),IC50,Tyrosinase [5],5.84 µM
O=C(O)CSc1nnc(NC(=S)Nc2cccc(C(F)(F)F)c2)s1,IC50,Tyrosinase [6],15 µM
O=C1CSC(c2ccccc2O)N1c1ccc(-c2ccc(N3C(=O)CSC3c3ccccc3O)cc2)cc1 (stereo not drawn),IC50,Tyrosinase [7],0.61 µM
COc1cc(C2CC(c3cc4ccccc4oc3=O)=NN2c2nc(-c3ccc(Br)cc3)cs2)ccc1OCc1ccccc1 (stereo not drawn),IC50,Tyrosinase [8],< 0.1 µM
CCn1c2ccccc2c2cc(NC(=O)CSc3nc4ccccc4[nH]3)ccc21,Ki,Tyrosinase [9],1.64 µM
CC(C)C(=O)Nc1nc(-c2ccc(O)cc2O)cs1,IC50,Tyrosinase [10],108 µM
Clc1ccc(Cn2cc(COc3ccc(-c4nc5ccccc5[nH]4)cc3)nn2)cc1Cl,IC50,Tyrosinase [11],9.42 µM
Cc1ccc(C(C)C)cc1NC(=O)COC(=O)c1ccc(O)cc1O,IC50,Tyrosinase [12],11 µM
COc1cc([N+](=O)[O-])ccc1/C=C/C(=N\O)c1cc2ccccc2cc1O,IC50,Tyrosinase [13],4.77 µM
O=C(COC(=O)c1ccc(O)cc1O)Oc1ccc2oc(=O)ccc2c1,IC50,Tyrosinase [14],8.96 µM
CC(=O)Nc1ccc(/N=N/c2c(N)nc(N)nc2Cl)cc1,IC50,Tyrosinase [11],24.4 µM
CC(=O)OC[C@H]1O[C@@H](Oc2ccc(O)cc2)[C@H](O)[C@@H](O)[C@@H]1O,inhibition (INH),B16,71.4%
Cc1cc(OCc2cn(Cc3ccc(F)cc3)nn2)c(C=C2C(=O)NC(=S)NC2=O)cc1Br,EC50,[15],39.2 µM
same,IC50,Tyrosinase [16],24.6 µM
O=C(OCc1cc(=O)c(O)c[nH]1)[C@H](Cc1ccccc1)NCc1ccccc1,IC50,Tyrosinase [17],8.97 µM
same,IC50,Tyrosinase [18],1.95 µM
O=C1/C(=C/c2ccc(O)c(Br)c2)CSc2ccccc21,IC50,Tyrosinase [19],4.1 µM
OCC1CSC(c2ccc(O)cc2O)S1 (stereo not drawn),IC50,Tyrosinase [19],13.9 µM
COc1cc(/C=N/NC(=O)c2ccc(O)c(OC)c2)ccc1O,IC50,Tyrosinase [20],10 µM
COc1ccccc1/C=C/C=N/Nc1nnc(SCc2cc(=O)c(O)co2)n1C,IC50,Tyrosinase [21],20.5 µM
same,IC50,Tyrosinase [22],7.5 µM
OC[C@H]1O[C@H](Oc2cc(O)cc(CCc3ccc(O)cc3O)c2)[C@H](O)[C@@H](O)[C@@H]1O,IC50,Tyrosinase [23],2.63 µM
O=C1/C(=C/c2ccc(O)cc2O)Cc2ccccc21,IC50,Tyrosinase [13],1.39 µM
same,Ki,Tyrosinase [24],2.4 µM
CCN(CC)c1ccc(Nc2nc(-c3ccc(O)cc3O)cs2)cc1,IC50,Mushroom tyrosinase [25],10.3 µM
same,IC50,Mushroom tyrosinase [26],6.2 µM
Oc1ccc(/C=N\n2c(Cc3ccccc3F)n[nH]c2=S)cc1,IC50,Tyrosinase [16],6.23 µM
CC1(C)CC(=O)C2=C(C1)Oc1c(oc(CCl)cc1=O)C2c1ccc(F)cc1 (stereo not drawn),Ki,Tyrosinase [27],4 µM
OC[C@H]1O[C@H](Oc2cc(CCc3ccc(O)cc3O)cc(O[C@H]3O[C@H](CO)[C@@H](O)[C@H](O)[C@H]3O)c2)[C@H](O)[C@@H](O)[C@@H]1O,IC50,Tyrosinase [23],12.8 µM
Cc1ccc(C(C)C)cc1NC(=O)COC(=O)/C=C/c1ccc(O)cc1O,IC50,Tyrosinase [28],0.15 µM
COc1cc(/C=C/C(=O)c2ccc(OC)c(OC)c2)ccc1O,IC50,Tyrosinase [29],0.038 µM
CCOc1cc(/C=N/NC(=O)c2ccc(O)c(OC)c2)ccc1O,IC50,Tyrosinase [20],1.58 µM
O=C(/C=C/c1ccc(O)cc1O)c1cccs1,IC50,Tyrosinase [30],0.93 µM
same,IC50,Tyrosinase [31],0.013 µM
Nn1c(S)nnc1N/N=C\c1ccccc1O,IC50,Tyrosinase [16],1.52 µM
CCOC(=O)C1=C(N)Oc2c(ccc3ccccc23)C1c1ccc(N(C)C)cc1 (stereo not drawn),EC50,[32],0.94 mM/L
O=C1N=C(Nc2nc3ccccc3s2)S/C1=C\c1ccc(O)cc1O,IC50,Tyrosinase [19],1.8 µM
COc1cc(CC2C(=O)Nc3ccccc32)ccc1O (stereo not drawn),IC50,Tyrosinase [33],59.7 µM
same,IC50,Tyrosinase [34],63.4 µM
O=C1OC(c2ccccc2Br)=NC(=S)C1c1nn[nH]n1 (stereo not drawn),IC50,Tyrosinase [8],< 0.1 µM
Cc1ccc(NC(=O)CCCN2CCN(C/C=C/c3ccccc3)CC2)c(C)c1,IC50,Tyrosinase [8],< 0.1 µM
COc1cccc2c1c(C(=O)C(=O)Nc1cc[nH]n1)cn2Cc1ccc(F)cc1,IC50,Tyrosinase [29],224 µM
O=P(O)(c1ccccc1)C(NCc1ccccc1)c1ccccn1 (stereo not drawn),Ki,Tyrosinase [35],76 µM
same,IC50,Tyrosinase [36],310 µM
COc1ccccc1-n1c(SCC(=O)Nc2ccc(Br)cc2)nnc1-c1ccccc1,IC50,Tyrosinase [8],< 0.1 µM
COc1cc(/C=C/C(=O)c2cc(OC)c(OC)c(-c3cc(C(=O)/C=C/c4ccc(O)c(OC)c4)cc(OC)c3OC)c2)ccc1O,IC50,Tyrosinase [29],0.022 µM
Nc1nc(-c2ccc(O)cc2O)cs1,EC50,Tyrosinase [37],245 µM
Nc1ccccc1C(=O)O [ANTHRANILIC ACID],IC50,Mushroom tyrosinase [25],4.72 µM
same,IC50,Mushroom tyrosinase [26],5.15 µM
OC[C@H]1O[C@@H](Oc2ccc(O)cc2)[C@H](O)[C@@H](O)[C@@H]1O [ARBUTIN],inhibition (INH),B16,55.4%
O=C(O)/C=C/c1ccc(O)cc1 [COUMARIC ACID],IC50,Tyrosinase [4],296 µM
